Test: NF-kB promoter reporter activators, neuronal cells, dose response, cell-based, SH-SY5Y, luciferase (AID 1241)
Details: fold induction

Row | Structure (SMILES) | EC50 [nM]
1 | CC(=O)Nc1cccc(-c2csc(Nc3cccc(C)n3)n2)c1 | 1630
2 | Nc1ccc2nc(SCc3cccc(F)c3)sc2c1 | 3680
3 | Cc1cc(C)c2nc(NC(=O)C3CCCO3)sc2c1 (centres undefined) | 18600
4 | C(=N\Nc1nc(-c2ccccc2)cs1)/c1cccs1 | 5970
5 | COc1ccc(-c2cc(=O)c3c(O)c(OC)c(O)cc3o2)cc1 | 2290
6 | COC(=O)CSc1nc2cc(OC)ccc2cc1C#N | 295
7 | COc1ccc(NC(=O)C2=Cc3ccccc3OC2)cc1 | 800
8 | Cc1cc(/C=C(\C#N)C(=O)Nc2ccccc2F)c(C)[nH]1 | 28700
9 | O=C(NCc1cccnc1)c1ccc([N+](=O)[O-])o1 | 2810
10 | CCOC(=O)c1sc(=NC(=O)c2cccs2)n(C)c1C | 778
11 | COc1ccc(OCc2cccc(C(=O)O)c2)cc1 | 964
12 | CCN(CC)c1ccc(C(=O)Nc2cccc(F)c2)cc1 | 1060
13 | Oc1c(C(Nc2ccccn2)c2ccccn2)ccc2cccnc12 (centres undefined) | 3990
14 | C(=N\Nc1nc2ccccc2s1)/c1cccs1 | 887
15 | O=C(Nc1ccc(Cl)cn1)c1cc2ccccc2o1 | 2430
16 | Oc1ccc(-c2csc(Nc3ncccn3)n2)c(O)c1 | 945
17 | COc1cccc(-c2noc(-c3ccc4c(c3)OCO4)n2)c1 | 506
18 | CC(C)c1ccc(/C=C/C(=O)Nc2nncs2)cc1 | 4500
19 | O=C(NC1=NCCS1)c1sc2ccccc2c1Cl | 5760
20 | Nc1ccc2nc(-c3ccc(Cl)cc3)[nH]c2c1 | 9960
21 | COc1ccc2c(c1OC)C(=O)OC2Nc1nc(-c2cc3ccccc3oc2=O)cs1 (centres undefined) | 2100
22 | Cc1cc(C(=O)Nc2cccc(C(=O)O)c2)oc1C | 29800
23 | COc1ccc2nc(Nc3ccccc3OC)sc2c1 | 2240

Row | Structure (SMILES) | EC50 [nM]
24 | Nc1ccc(-c2nc3ccc(C(=O)O)cc3s2)cc1 | 146
25 | COc1cccc(N/C=C/C(=O)c2ccc(Cl)cc2)c1 | 652
26 | Cc1ccc(NC(=O)c2noc3c2CCC3)cc1C | 3120
27 | Cc1nc(NC(=O)c2csc3ccccc23)sc1C | 943
28 | CCc1ccc(C2=NN(S(C)(=O)=O)C(c3cccs3)C2)cc1 (centres undefined) | 2850
29 | O=C(/C=C/c1ccc(Cl)cc1)Nc1nccs1 | 793
30 | Cn1cccc1C(=O)C(=O)Nc1ccc(Cl)cc1 | 25200
31 | O=S1(=O)N=C(Nc2nc3c(s2)CCCC3)c2ccccc21 | 21800
32 | O=C(NC1=NCCS1)c1csc2ccccc12 | 17300
33 | CC(=O)Oc1ccc(Cl)cc1/C=C/c1ccc2ccccc2n1 | 836
34 | CSc1ccc(/C=C/c2ccc3cccc(O)c3n2)cc1 | 2490
35 | CC(C)(C)c1ccc(C(=O)/C=C2\NC(=O)CS2)cc1 | 1140
36 | COC(=O)c1ccc(-c2ccc(Cl)cc2)nc1C | 4440
37 | CC(C)c1ccc(Nc2nc(CC(=O)O)cs2)cc1 | 5810
38 | COc1ccc(/C=C/c2nc3ccccc3n2Cc2ccccc2OC)cc1 | 4980
39 | CCOC(=O)c1cnc2c(-c3ccccc3)cnn2c1N | 5180
40 | O=C(CCCc1ccccc1)N1CCc2ccccc21 | 2570
41 | O=C(Nc1cccnc1Cl)c1ccc2c(Cl)c3c(nc2c1)CCC3 | 674
42 | O=C(N/N=C/c1cccc(F)c1)c1csc2c1CCCC2 | 21900
43 | COc1ccc2c(c1OC)C(=O)OC2Nc1nc(-c2ccc(-c3ccccc3)cc2)cs1 (centres undefined) | 2980
44 | CC(C)c1ccc(/C=N/NC(=O)c2cccc(Cl)c2)cc1 | 28800
45 | Cc1sc(NC(=O)c2ccc(Cl)s2)c(C(N)=O)c1C | 1700
46 | O=C(/C=C/Nc1ccc(Oc2ccccc2)cc1)c1ccco1 | 1210

Row | Structure (SMILES) | EC50 [nM]
47 | Cc1cccnc1NCc1ccc(O)c2ncccc12 | 7650
48 | Cc1c(C(=O)N2CCc3ccccc32)oc2ccccc12 | 3370
49 | O=C1CC(c2ccco2)CC2=C1C1c3ccccc3C(=O)N1c1ccccc1N2 (centres undefined) | 3070
50 | O=C(Nc1nc2ccccc2s1)c1ccc2c(c1)OCO2 | 138
51 | O=S(=O)(c1ccc(Cl)cc1)c1snnc1-c1ccccc1 | 2330
52 | Cc1ccc(C)c(NC(=S)c2ccccn2)c1 | 6690
53 | COC(=O)c1cccc(NC(=O)c2onc3c2CCCC3)c1 | 2040
54 | CC1=NC(=O)C(N=Nc2cccc(C(=O)O)c2)N1c1ccccc1 (centres undefined) | 781
55 | CCc1ccc(C(=O)/C=C/c2cnn(C)c2C)s1 | 7900
56 | Cc1ccccc1Nc1nc(N)nc(CSc2ccc(F)cc2)n1 | 6450
57 | COc1cccc(-c2nc(-c3ccccc3)no2)c1 | 1490
58 | CCc1sc(C(=O)N2CCc3ccccc32)cc1C | 1690
59 | O=C(Nc1ccc2ccccc2c1)c1onc2c1CCCC2 | 632
60 | O=C(Cc1ccccc1)Nc1nc2ccccc2s1 | 29500
61 | CCCCCc1ccc(-c2ccc(C(=O)O)cc2)nc1 | 1410
62 | CN(c1ccccc1)c1ccc(/C=N/N2CCOCC2)cc1 | 6770
63 | CCCCNc1ncnc2c1cnn2-c1ccccc1 | 6070
64 | N#C/C(=N\Nc1ccc(F)cc1)C(=N)N1CCCCCC1 | 2170
65 | Cc1ccc(NCc2nc3ccccc3n2C)cc1 | 3360
66 | O=C(Nc1ccccn1)c1sc2cccc(F)c2c1Cl | 1760
67 | N/C(=N\OC(=O)c1ccccc1Cl)c1ccccc1 | 956
68 | CSC(=S)N/N=C(\C)c1ccccc1 | 1170
69 | O=C1C(c2cc(=O)c3ccccc3[nH]2)=C(O)c2ccccc21 | 4980

Row | Structure (SMILES) | EC50 [nM]
70 | Cc1ccc(N/C=C/C(=O)c2cccs2)cc1C | 270
71 | Cc1ccc(/C=C(\C#N)c2nc3ccccc3[nH]2)s1 | 637
72 | COC(=O)c1ccc(NC(=O)C(=O)c2cccn2C)cc1 | 1710
73 | COc1cccc(-c2nc3cc(C)ccc3o2)c1 | 1050
74 | CCOc1ccc(OCc2cccc(C(=O)O)c2)cc1 | 1850
75 | Cc1nc2ccc(-c3nc4ccccc4o3)cc2[nH]1 | 3300
76 | Clc1c(CSc2nc3ccccc3o2)nc2sccn12 | 2410
77 | COc1ccc(C(=O)NCCSc2ccccc2)cc1 | 956
78 | COc1ccc(C(=O)/C=C2\Sc3ccccc3N2C)cc1 | 1750
79 | CC(=O)Nc1ccc2oc(-c3ccccc3Br)nc2c1 | 1060
80 | Cc1ccc(-c2cnc3c(Cl)c(C)nn3c2)cc1 | 11500
81 | Cc1ccc(C(=O)Nc2ncc(Cc3ccc(F)cc3)s2)o1 | 6160
82 | CSc1ccc(C(=O)/C=C/c2ccc(N)cc2)cc1 | 3840
83 | O=C(O)c1cccc(N/N=C/c2cccs2)c1 | 1310
84 | O=[N+]([O-])c1ccc(N/N=C/c2ccc[nH]2)cc1 | 3630
85 | Clc1ccc(Nc2nc(-c3cccs3)cs2)nc1 | 686
86 | Cn1/c(=N/N=C/c2ccccn2)sc2ccccc21 | 6330
87 | Oc1ccc(-c2cn3cc(C(F)(F)F)ccc3n2)cc1 | 1190
88 | Oc1ccccc1-c1cc(-c2ccccc2Cl)[nH]n1 | 1240
89 | Cc1ccc(S(=O)(=O)/N=C(/NC(=S)Nc2ccccc2)c2ccccc2)cc1 | 23500
90 | Cc1ccc(NC(=O)COc2ccccc2[N+](=O)[O-])nc1 | 18200
91 | O=C(c1ccccc1)c1cnc(Nc2ccccc2Cl)s1 | 7970
92 | COc1cccc(C(=O)/C=C/Nc2cc(C)ccc2O)c1 | 5510

Row | Structure (SMILES) | EC50 [nM]
93 | CCC(=O)NC(=Nc1nc2ccccc2s1)NC(=O)CC | 4450
94 | Fc1ccccc1OCCSc1nnnn1-c1ccccc1 | 1240
95 | CCn1cnc2cc(NCc3nc4ccccc4n3C)ccc21 | 1420
96 | O=C(Nc1ccc2c(c1)OCO2)c1noc2c1CCCCC2 | 1130
97 | COc1ccc(/C=N/Nc2ncccc2[N+](=O)[O-])c(OC)c1 | 3350
98 | O=C(Nc1ccc2c(c1)CCC2)c1ccccc1 | 1840
99 | CC(/C=N/Nc1nc2ccccc2[nH]1)=C\c1ccccc1 | 4160
100 | CC(C)(C)C(=O)Nc1nc(-c2ccccc2)ns1 | 2730
101 | O=C(Nc1ccccc1O)c1ccc(NS(=O)(=O)c2cccc3cccnc23)cc1 | 21900
102 | Cc1nnc(SCc2cnc(-c3ccc(C(C)C)cc3)s2)n1C | 4570
103 | O=C(OCC(=O)c1c[nH]c2ccccc12)c1cccc(O)c1 | 14600
104 | O=C(/C=C/c1ccco1)Nc1ccc2c(c1)OCCO2 | 1280
105 | Cc1cccc(-c2cc3c(nn2)-c2ccccc2C3=O)c1 | 2600
106 | Cc1cccc(NC(=O)/C=C/c2ccc3c(c2)OCO3)n1 | 2510
107 | CC(C)c1ccc(-n2cnn(-c3ncccc3[N+](=O)[O-])c2=O)cc1 | 1590
108 | Nc1nn(-c2cccc(F)n2)cc1-c1ccccc1 | 26000
109 | O=C(Nc1ccc(Cl)cc1)N1CCC(c2ccccc2)C1 (centres undefined) | 10600
110 | Cc1ccsc1/C=N/Nc1nc2ccccc2[nH]1 | 8260
111 | COCCNC(=O)/C(C#N)=C/c1cc(C)n(-c2ccc(C)cc2)c1C | 5600
112 | C=CCSc1nnc(-c2ccc(Cl)cc2Cl)o1 | 4370
113 | O=C(Nc1nccs1)c1ccc(-c2ccc(Cl)cc2)o1 | 27600
114 | COc1cccc(/C=C/C(=O)Nc2ccc3c(c2)OCCO3)c1OC | 1050
115 | CC(/C=N/NC(=O)c1ccco1)=C\c1ccccc1 | 4660

Row | Structure (SMILES) | EC50 [nM]
116 | O=C(O)c1cccc(COc2ccccc2Cl)c1 | 1350
117 | O=C(Nc1nc2ccccc2s1)c1ccc(F)cc1 | 1200
118 | CCSc1ccc(-c2ccc(C)cc2)nn1 | 690
119 | O=C(Nc1ccc2c(c1)CCC2)c1ccc(F)cc1 | 217
120 | COc1ccc2cc(-c3cc(C(=O)O)c4ccccc4n3)ccc2c1 | 1140
121 | CCCCc1ccc(-c2ccc(C)cc2O)nc1 | 3250
122 | Cn1cccc1/C=C1\CCc2ccccc2C1=O | 1630
123 | O=C(/C=C/c1ccccc1Cl)c1ccccc(=O)c1O | 8070
124 | NC(=O)c1ccccc1N/C=C/C(=O)c1ccc(Cl)cc1Cl | 1250
125 | O=c1c(-c2ccc3c(c2)OCCO3)coc2cc(O)cc(O)c12 | 22700
126 | CC(=O)Nc1nc2ccc(-c3nc4ccccc4o3)cc2s1 | 1460
127 | CCN(CC)S(=O)(=O)c1cc(C(=O)OCC(=O)Nc2ccc(-c3nc4ccc(C)cc4s3)cc2)ccc1F | 516
128 | CC(=O)Nc1ccc(-c2csc(Nc3cccc(C)n3)n2)cc1 | 1000
129 | COc1ccc(-c2cn3cc(C)ccc3n2)cc1OC | 3370
130 | COc1cccc(N(C(=O)c2nc3nccc(C)n3n2)c2nc3ccccc3s2)c1 | 7220
131 | CC(=Nc1ccccc1)c1sc2ccccc2c1O | 6490
132 | O=C(COc1ccc(CO)cc1Cl)Nc1ccc(F)cc1 | 1600
133 | Cc1ccc(-c2nc(-c3cccnc3)no2)cc1 | 1320
134 | O=[N+]([O-])c1ccc(C2Oc3ccccc3C3CC(c4ccccc4)=NN32)s1 (centres undefined) | 12200

From PubChem BioAssay AID1241 (SRMLSC, 2008)
